Source: patent US7632933B2, “Corticotropin releasing factor 2 receptor agonists” (priority 2002, dated 2009)
Like-named read-outs stand apart in the source and are kept apart here. Ends that are not written are not given here. Peptide text beside a SMILES is read from it.

What was measured:
[1] = target: T1, CRF1R (Homo sapiens, UniProt P34998); assay: CRF1R agonist activity (EC50 and Emax), called comparative CRF binding; type: cell-based; conditions: CRF1R
T1 sequence (P34998 24-415): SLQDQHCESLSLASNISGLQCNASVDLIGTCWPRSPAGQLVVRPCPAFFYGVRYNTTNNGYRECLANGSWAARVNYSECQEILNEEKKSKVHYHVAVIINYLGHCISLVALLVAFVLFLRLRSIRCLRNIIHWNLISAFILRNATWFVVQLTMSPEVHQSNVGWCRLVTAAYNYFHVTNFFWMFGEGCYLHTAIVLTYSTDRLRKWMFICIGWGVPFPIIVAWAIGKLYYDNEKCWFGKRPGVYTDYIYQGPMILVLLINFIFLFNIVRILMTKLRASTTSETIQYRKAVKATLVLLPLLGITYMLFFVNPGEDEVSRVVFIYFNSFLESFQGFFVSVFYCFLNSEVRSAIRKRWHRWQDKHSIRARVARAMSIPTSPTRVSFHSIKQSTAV
Description: (§1) The pharmacological activity and selectivity of the peptides of present invention can be determined using published test procedures. See, e.g, U.S. patent application Ser. No. 09/799,978. Because CRF2R and CRF1R are homologous proteins, it is expected that a certain proportion of agonists for CRF2R will also function as agonists of CRF1R. As discussed above, activation of CRF1R induces activation of the HPA axis since increased corticosteroid production leads to skeletal muscle atrophy. In most cases in which an increase in muscle mass or function is desired, it is not desirable to activate the HPA axis.
(§2) Because it is desirable to discriminate binding between CRF2R, as compared with CRF1R, the assays described above may be conducted using a cell, or membrane from a cell, which expresses only CRF2R or the assays can be conducted with a recombinant source of CRF2R. Cells expressing both forms of CRFR may be modified using homologous recombination to inactivate or otherwise disable the CRF1R gene. Alternatively, if the source of CRFR contains more than one CRFR type, the background signal produced by the receptor which is not of interest must be subtracted from the signal obtained in the assay. […] Known antagonists of CRFRs include, but are not limited to, antalarmin (CRF1R selective), antisauvagine-30 (CRF2R selective) and astressin (nonselective for CRF1R/CRF2R).
(§3) Cell-based assays include the steps of contacting cells which express CRF1R or CRF2R with a peptide of the present invention or control and measuring activation of the CRFR by measuring the expression or activity of components of the CRFR signal transduction pathways.
(§4) For example, after contact with a peptide of the present invention, lysates of the cells can be prepared and assayed for induction of cAMP. cAMP is induced in response to Gαs activation. Because Gαs is activated by receptors other than CRFR and because a test peptide may be exerting its effect through CRFRs or by another mechanism, two control comparisons are relevant for determining whether the peptide increases levels of cAMP via activation of a CRFR. One control compares the cAMP level of cells contacted with the peptide and the cAMP level of cells contacted with a control compound (i.e., the vehicle in which the peptide is dissolved).
(§5) In one example, cAMP induction is measured with the use of DNA constructs containing the cAMP responsive element linked to any of a variety of reporter genes can be introduced into cells expressing CRFRs. Such reporter genes include, but are not limited to, chloramphenicol acetyltransferase (CAT), luciferase, glucuronide synthetase, growth hormone, fluorescent proteins (e.g., Green Fluorescent Protein), or alkaline phosphatase. Following exposure of the cells to the peptide, the level of reporter gene expression can be quantitated to determine the peptide's ability to increase cAMP levels and thus determine the peptide's ability to activate the CRFR.
(§6) In addition to using cells expressing full length CRFRs, cells can be engineered which express CRFRs containing the ligand binding domain of the receptor coupled to, or physically modified to contain, reporter elements or to interact with signaling proteins. For example, a wild type CRFR or CRFR fragment can be fused to a G-protein resulting in activation of the fused G-protein upon agonist binding to the CRFR portion of the fusion protein. […] In addition, alternative pathways for induction of the CRE reporter could be eliminated to reduce basal levels.

[2] = target: T2, CRF2R (Homo sapiens, UniProt Q13324); assay: CRF2R agonist activity (EC50 and Emax), called comparative CRF binding; type: cell-based; conditions: CRF2R
T2 sequence (Q13324 1-411): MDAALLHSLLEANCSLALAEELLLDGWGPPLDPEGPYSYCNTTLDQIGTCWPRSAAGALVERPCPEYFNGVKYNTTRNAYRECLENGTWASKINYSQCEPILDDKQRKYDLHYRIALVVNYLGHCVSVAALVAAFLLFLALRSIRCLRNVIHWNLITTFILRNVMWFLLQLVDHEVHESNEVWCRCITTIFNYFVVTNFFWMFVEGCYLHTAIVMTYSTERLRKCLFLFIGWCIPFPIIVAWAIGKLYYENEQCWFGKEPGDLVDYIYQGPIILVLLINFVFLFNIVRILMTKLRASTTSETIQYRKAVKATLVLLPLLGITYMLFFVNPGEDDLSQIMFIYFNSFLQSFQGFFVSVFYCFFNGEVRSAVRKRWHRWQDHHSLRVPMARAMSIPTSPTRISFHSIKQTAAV
Description: as §1, §2, §3, §4, §5, §6

Compound | EC50 ([1]; CRF1R EC50 (nM)) | EC50 ([2]; CRF2R EC50 (nM)) | EC50 ([1]; read-out: CRF1R EC50) | EC50 ([2]; read-out: CRF2R EC50)
CC[C@H](C)[C@H](N)C(=O)N[C@H](C(=O)N[C@@H](CC(C)C)C(=O)N[C@@H](CO)C(=O)N[C@@H](CC(C)C)C(=O)N[C@@H](CC(=O)O)C(=O)N[C@H](C(=O)N1CCC[C@H]1C(=O)N[C@H](C(=O)NCC(=O)N[C@@H](CC(C)C)C(=O)N[C@@H](CC(C)C)C(=O)N[C@@H](CCC(N)=O)C(=O)N[C@H](C(=O)N[C@@H](CC(C)C)C(=O)N[C@@H](CC(C)C)C(=O)N[C@@H](CCC(=O)O)C(=O)N[C@@H](CCC(N)=O)C(=O)N[C@@H](C)C(=O)N[C@@H](C)C(=O)N[C@@H](C)C(=O)N[C@@H](C)C(=O)N[C@@H](CCCNC(=N)N)C(=O)N[C@@H](CCC(=O)O)C(=O)N[C@@H](CCC(N)=O)C(=O)N[C@@H](C)C(=O)N[C@H](C(=O)N[C@H](C(=O)N[C@@H](CC(N)=O)C(=O)N[C@@H](C)C(=O)N[C@@H](CCCNC(=N)N)C(=O)N[C@H](C(=O)N[C@@H](CC(C)C)C(=O)N[C@@H](C)C(=O)N[C@@H](CCCNC(=N)N)C(=O)N[C@H](C(N)=O)C(C)C)[C@@H](C)CC)[C@@H](C)O)[C@@H](C)O)[C@@H](C)CC)[C@@H](C)CC)C(C)C)C(C)C [compound 134] (H-IVLSLDVPIGLLQILLEQAAAAREQATTNARILARV-NH2) | > 100 nM | > 100 nM | – | –
NDDPPISIDLPTYLLRNMIEMARIENEREQAGLNAKYLAEV-NH2 [compound 266] | – | – | ≥ 1000 nM | ≥ 100 nM
SQEPPISLDLTIHLLREVLEMTKADQLAQQAHSNRKLLDIA-NH2 [compound 87] | – | – | ≥ 100 nM | ≥ 100 nM
NDDPPISIDLPLLLLRNMIEMARIENEREQAGLNAKYLAEV-NH2 [compound 268] | – | – | ≥ 1000 nM | ≥ 100 nM
CC[C@H](C)[C@H](N)C(=O)N[C@H](C(=O)N[C@@H](CC(C)C)C(=O)N[C@@H](CO)C(=O)N[C@@H](CC(C)C)C(=O)N[C@@H](CC(=O)O)C(=O)N[C@H](C(=O)N1CCC[C@H]1C(=O)N[C@H](C(=O)NCC(=O)N[C@@H](CC(C)C)C(=O)N[C@@H](CC(C)C)C(=O)N[C@@H](CCC(N)=O)C(=O)N[C@H](C(=O)N[C@@H](CC(C)C)C(=O)N[C@@H](CC(C)C)C(=O)N[C@@H](CCC(=O)O)C(=O)N[C@@H](CCC(N)=O)C(=O)N[C@@H](C)C(=O)N[C@@H](CCCNC(=N)N)C(=O)N[C@@H](C)C(=O)N[C@@H](CCCNC(=N)N)C(=O)N[C@@H](C)C(=O)N[C@@H](C)C(=O)N[C@@H](CCCNC(=N)N)C(=O)N[C@@H](CCC(=O)O)C(=O)N[C@@H](CCC(N)=O)C(=O)N[C@@H](C)C(=O)N[C@H](C(=O)N[C@H](C(=O)N[C@@H](CCC(N)=O)C(=O)N[C@@H](C)C(=O)N[C@@H](CCCNC(=N)N)C(=O)N[C@H](C(=O)N[C@@H](CC(C)C)C(=O)N[C@@H](C)C(=O)N[C@@H](CCCNC(=N)N)C(=O)N[C@H](C(N)=O)C(C)C)[C@@H](C)CC)[C@@H](C)O)[C@@H](C)O)[C@@H](C)CC)[C@@H](C)CC)C(C)C)C(C)C [compound 9] (H-IVLSLDVPIGLLQILLEQARARAAREQATTQARILARV-NH2) | – | – | ≥ 100 nM | ≥ 100 nM
SQEPPISLDLPTELLREVLEMTKADQLAQQAHSNRKIIDIA-NH2 [compound 92] | – | – | ≥ 100 nM | ≥ 100 nM
CC[C@H](C)[C@H](N)C(=O)N[C@H](C(=O)N[C@@H](CC(C)C)C(=O)N[C@@H](CO)C(=O)N[C@@H](CC(C)C)C(=O)N[C@@H](CC(=O)O)C(=O)N[C@H](C(=O)N1CCC[C@H]1C(=O)N[C@H](C(=O)NCC(=O)N[C@@H](CC(C)C)C(=O)N[C@@H](CC(C)C)C(=O)N[C@@H](CCC(N)=O)C(=O)N[C@H](C(=O)N[C@@H](CC(C)C)C(=O)N[C@@H](CC(C)C)C(=O)N[C@@H](CCC(=O)O)C(=O)N[C@@H](CCC(N)=O)C(=O)N[C@@H](C)C(=O)N[C@@H](CCCCN)C(=O)N[C@@H](C)C(=O)N[C@@H](CCCNC(=N)N)C(=O)N[C@@H](C)C(=O)N[C@@H](C)C(=O)N[C@@H](CCCNC(=N)N)C(=O)N[C@@H](CCC(=O)O)C(=O)N[C@@H](CCC(N)=O)C(=O)N[C@@H](C)C(=O)N[C@H](C(=O)N[C@H](C(=O)N[C@@H](CC(N)=O)C(=O)N[C@@H](C)C(=O)N[C@@H](CCCNC(=N)N)C(=O)N[C@H](C(=O)N[C@@H](CC(C)C)C(=O)N[C@@H](C)C(=O)N[C@@H](CCCNC(=N)N)C(=O)N[C@H](C(N)=O)C(C)C)[C@@H](C)CC)[C@@H](C)O)[C@@H](C)O)[C@@H](C)CC)[C@@H](C)CC)C(C)C)C(C)C [compound 109] (H-IVLSLDVPIGLLQILLEQAKARAAREQATTNARILARV-NH2; N-terminus assumed) | – | – | – | 11.8 nM
CC[C@H](C)[C@H](N)C(=O)N[C@H](C(=O)N[C@@H](CC(C)C)C(=O)N[C@@H](CO)C(=O)N[C@@H](CC(C)C)C(=O)N[C@@H](CC(=O)O)C(=O)N[C@H](C(=O)N1CCC[C@H]1C(=O)N[C@H](C(=O)NCC(=O)N[C@@H](CC(C)C)C(=O)N[C@@H](CC(C)C)C(=O)N[C@@H](CCC(N)=O)C(=O)N[C@H](C(=O)N[C@@H](CC(C)C)C(=O)N[C@@H](CC(C)C)C(=O)N[C@@H](CCC(=O)O)C(=O)N[C@@H](CCC(N)=O)C(=O)N[C@H](C(=O)N[C@@H](CCCCN)C(=O)N[C@@H](C)C(=O)N[C@@H](CCCNC(=N)N)C(=O)N[C@@H](C)C(=O)N[C@@H](C)C(=O)N[C@@H](CCCNC(=N)N)C(=O)N[C@@H](CCC(=O)O)C(=O)N[C@@H](CCC(N)=O)C(=O)N[C@@H](C)C(=O)N[C@H](C(=O)N[C@H](C(=O)N[C@@H](CC(N)=O)C(=O)N[C@@H](C)C(=O)N[C@@H](CCCNC(=N)N)C(=O)N[C@H](C(=O)N[C@@H](CC(C)C)C(=O)N[C@@H](C)C(=O)N[C@@H](CCCNC(=N)N)C(=O)N[C@H](C(N)=O)C(C)C)[C@@H](C)CC)[C@@H](C)O)[C@@H](C)O)[C@@H](C)O)[C@@H](C)CC)[C@@H](C)CC)C(C)C)C(C)C [compound 117] (H-IVLSLDVPIGLLQILLEQTKARAAREQATTNARILARV-NH2; N-terminus assumed) | – | – | – | 9.41 nM
SQEPPISLDLPLELLREVLEMTKADQLAQQAHSNRKLLDIA-NH2 [compound 89] | – | – | – | ≥ 100 nM
